Source: ChEMBL document CHEMBL5291721, “A preclinical secondary pharmacology resource illuminates target-adverse drug reaction associations of marketed drugs” (Nat Commun, 2023)

Tests used:
[1] = target: T1, Alpha-2A adrenergic receptor (Homo sapiens, UniProt P08913); format: functional, cell-based
T1 sequence (P08913 whole entry): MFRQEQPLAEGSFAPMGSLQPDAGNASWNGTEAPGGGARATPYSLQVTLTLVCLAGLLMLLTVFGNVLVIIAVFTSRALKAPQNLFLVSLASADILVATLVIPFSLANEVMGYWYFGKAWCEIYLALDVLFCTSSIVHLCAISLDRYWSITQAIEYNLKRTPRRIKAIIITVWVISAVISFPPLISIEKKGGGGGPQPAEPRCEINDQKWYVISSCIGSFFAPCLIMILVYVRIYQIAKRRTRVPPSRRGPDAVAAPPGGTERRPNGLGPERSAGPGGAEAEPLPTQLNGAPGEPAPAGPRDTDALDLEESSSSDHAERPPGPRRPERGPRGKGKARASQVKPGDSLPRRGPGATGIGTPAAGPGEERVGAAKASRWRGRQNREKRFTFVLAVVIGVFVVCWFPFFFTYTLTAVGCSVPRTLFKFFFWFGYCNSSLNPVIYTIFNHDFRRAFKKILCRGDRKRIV

[2] = target: T2, Type-1 angiotensin II receptor (Homo sapiens, UniProt P30556)
T2 sequence (P30556 whole entry): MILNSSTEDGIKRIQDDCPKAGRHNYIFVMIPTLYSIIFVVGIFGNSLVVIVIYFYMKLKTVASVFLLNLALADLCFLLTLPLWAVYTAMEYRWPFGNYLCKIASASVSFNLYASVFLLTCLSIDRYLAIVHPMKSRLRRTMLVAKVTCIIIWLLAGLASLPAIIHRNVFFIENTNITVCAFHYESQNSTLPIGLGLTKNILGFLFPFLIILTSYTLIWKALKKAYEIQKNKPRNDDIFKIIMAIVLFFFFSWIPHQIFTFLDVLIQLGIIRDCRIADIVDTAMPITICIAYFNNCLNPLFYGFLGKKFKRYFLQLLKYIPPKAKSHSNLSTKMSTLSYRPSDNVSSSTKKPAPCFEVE

[3] = target: T3, Muscarinic acetylcholine receptor M2 (Homo sapiens, UniProt P08172); format: functional, cell-based
T3 sequence (P08172 whole entry): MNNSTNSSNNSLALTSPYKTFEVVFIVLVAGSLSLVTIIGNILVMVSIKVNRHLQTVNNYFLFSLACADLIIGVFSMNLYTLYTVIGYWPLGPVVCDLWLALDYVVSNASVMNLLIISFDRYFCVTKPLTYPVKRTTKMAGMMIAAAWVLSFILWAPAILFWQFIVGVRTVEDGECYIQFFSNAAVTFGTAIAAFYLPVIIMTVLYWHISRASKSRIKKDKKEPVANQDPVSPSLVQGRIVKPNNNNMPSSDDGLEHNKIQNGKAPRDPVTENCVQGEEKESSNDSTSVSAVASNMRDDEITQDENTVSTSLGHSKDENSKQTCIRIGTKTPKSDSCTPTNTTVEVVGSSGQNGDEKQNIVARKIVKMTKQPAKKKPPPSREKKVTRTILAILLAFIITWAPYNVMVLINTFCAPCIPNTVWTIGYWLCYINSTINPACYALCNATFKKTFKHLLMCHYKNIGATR

[4] = target: Muscarinic acetylcholine receptor M3 (Homo sapiens, UniProt P20309)
[5] = target: Neuronal acetylcholine receptor subunit alpha-4 (Homo sapiens, UniProt P43681)
D(1A) dopamine receptor = D(1A) dopamine receptor (Homo sapiens, UniProt P21728); format: functional, cell-based
[6] = target: Gamma-aminobutyric acid receptor subunit alpha-1 (Rattus norvegicus, UniProt P62813); format: functional
[7] = target: Growth hormone secretagogue receptor type 1 (Homo sapiens, UniProt Q92847)
Histamine H1 receptor = Histamine H1 receptor (Homo sapiens, UniProt P35367)
Histamine H2 receptor = Histamine H2 receptor (Homo sapiens, UniProt P25021); format: functional, cell-based
[8] = target: T4, 5-hydroxytryptamine receptor 1A (Homo sapiens, UniProt P08908); format: functional, cell-based
T4 sequence (P08908 whole entry): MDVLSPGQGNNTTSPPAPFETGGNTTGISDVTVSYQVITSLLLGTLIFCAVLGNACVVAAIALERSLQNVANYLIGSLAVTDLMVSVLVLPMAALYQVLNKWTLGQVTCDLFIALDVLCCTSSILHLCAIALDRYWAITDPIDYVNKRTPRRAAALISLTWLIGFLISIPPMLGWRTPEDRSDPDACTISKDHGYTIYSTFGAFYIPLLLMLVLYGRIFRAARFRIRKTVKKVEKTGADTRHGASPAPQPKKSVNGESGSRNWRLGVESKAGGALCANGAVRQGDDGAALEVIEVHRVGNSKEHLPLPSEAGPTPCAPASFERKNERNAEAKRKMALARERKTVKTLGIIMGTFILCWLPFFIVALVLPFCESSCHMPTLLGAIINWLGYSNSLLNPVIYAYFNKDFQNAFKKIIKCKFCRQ

[9] = target: 5-hydroxytryptamine receptor 2B (Homo sapiens, UniProt P41595); format: functional, cell-based
[10] = target: Delta-type opioid receptor (Homo sapiens, UniProt P41143)
Mu-type opioid receptor = Mu-type opioid receptor (Homo sapiens, UniProt P35372); test: biochemical; format: functional
[11] = target: Sodium-dependent serotonin transporter (Homo sapiens, UniProt P31645)
[12] = target: cGMP-inhibited 3',5'-cyclic phosphodiesterase 3A (Homo sapiens, UniProt Q14432); format: functional
[13] = target: T5, Gastrin/cholecystokinin type B receptor (Homo sapiens, UniProt P32239)
T5 sequence (P32239 whole entry): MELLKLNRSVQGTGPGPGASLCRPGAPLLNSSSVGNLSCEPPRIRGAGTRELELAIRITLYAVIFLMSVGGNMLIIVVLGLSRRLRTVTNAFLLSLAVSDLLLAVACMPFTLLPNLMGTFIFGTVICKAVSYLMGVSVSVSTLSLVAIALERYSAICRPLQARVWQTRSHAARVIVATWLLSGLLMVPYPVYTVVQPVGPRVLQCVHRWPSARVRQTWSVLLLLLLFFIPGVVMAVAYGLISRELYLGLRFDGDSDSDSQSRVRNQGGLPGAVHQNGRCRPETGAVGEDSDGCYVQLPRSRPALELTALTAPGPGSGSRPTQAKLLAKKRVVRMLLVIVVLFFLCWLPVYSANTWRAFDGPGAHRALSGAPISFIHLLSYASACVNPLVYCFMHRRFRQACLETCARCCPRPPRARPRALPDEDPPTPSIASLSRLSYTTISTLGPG
Note: assay procedure not described here.

Chain of Gamma-aminobutyric acid receptor subunit alpha-1 (P62813 whole entry): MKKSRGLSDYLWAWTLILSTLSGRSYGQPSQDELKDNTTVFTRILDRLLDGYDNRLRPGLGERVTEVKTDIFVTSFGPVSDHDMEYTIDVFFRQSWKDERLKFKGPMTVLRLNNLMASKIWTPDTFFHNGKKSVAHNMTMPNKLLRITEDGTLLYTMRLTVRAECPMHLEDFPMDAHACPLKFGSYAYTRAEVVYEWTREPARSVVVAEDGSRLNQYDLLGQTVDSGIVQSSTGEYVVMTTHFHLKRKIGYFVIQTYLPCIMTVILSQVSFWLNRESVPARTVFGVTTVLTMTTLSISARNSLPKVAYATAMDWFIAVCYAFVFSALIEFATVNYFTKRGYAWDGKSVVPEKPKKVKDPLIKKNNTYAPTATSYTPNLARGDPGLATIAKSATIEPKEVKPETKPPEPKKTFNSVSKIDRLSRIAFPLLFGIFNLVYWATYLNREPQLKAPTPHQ
Chain of Neuronal acetylcholine receptor subunit alpha-4 (P43681 whole entry): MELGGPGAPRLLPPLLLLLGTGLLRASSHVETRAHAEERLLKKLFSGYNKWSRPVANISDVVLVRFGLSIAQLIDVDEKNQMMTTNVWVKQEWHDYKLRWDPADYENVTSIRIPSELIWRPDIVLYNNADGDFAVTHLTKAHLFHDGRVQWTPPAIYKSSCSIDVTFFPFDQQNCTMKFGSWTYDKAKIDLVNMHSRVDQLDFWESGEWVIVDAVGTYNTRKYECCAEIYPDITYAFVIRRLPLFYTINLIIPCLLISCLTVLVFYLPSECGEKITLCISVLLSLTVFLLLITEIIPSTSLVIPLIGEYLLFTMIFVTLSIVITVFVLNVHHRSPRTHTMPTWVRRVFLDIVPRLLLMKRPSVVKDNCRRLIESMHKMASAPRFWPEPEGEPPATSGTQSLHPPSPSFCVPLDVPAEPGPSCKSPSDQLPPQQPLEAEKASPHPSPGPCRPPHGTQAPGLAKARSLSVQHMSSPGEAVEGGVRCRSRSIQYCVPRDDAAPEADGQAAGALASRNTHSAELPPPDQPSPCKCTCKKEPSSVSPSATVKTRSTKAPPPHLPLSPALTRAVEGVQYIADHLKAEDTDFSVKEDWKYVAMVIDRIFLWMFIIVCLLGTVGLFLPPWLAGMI
Chain of cGMP-inhibited 3',5'-cyclic phosphodiesterase 3A (Q14432 whole entry): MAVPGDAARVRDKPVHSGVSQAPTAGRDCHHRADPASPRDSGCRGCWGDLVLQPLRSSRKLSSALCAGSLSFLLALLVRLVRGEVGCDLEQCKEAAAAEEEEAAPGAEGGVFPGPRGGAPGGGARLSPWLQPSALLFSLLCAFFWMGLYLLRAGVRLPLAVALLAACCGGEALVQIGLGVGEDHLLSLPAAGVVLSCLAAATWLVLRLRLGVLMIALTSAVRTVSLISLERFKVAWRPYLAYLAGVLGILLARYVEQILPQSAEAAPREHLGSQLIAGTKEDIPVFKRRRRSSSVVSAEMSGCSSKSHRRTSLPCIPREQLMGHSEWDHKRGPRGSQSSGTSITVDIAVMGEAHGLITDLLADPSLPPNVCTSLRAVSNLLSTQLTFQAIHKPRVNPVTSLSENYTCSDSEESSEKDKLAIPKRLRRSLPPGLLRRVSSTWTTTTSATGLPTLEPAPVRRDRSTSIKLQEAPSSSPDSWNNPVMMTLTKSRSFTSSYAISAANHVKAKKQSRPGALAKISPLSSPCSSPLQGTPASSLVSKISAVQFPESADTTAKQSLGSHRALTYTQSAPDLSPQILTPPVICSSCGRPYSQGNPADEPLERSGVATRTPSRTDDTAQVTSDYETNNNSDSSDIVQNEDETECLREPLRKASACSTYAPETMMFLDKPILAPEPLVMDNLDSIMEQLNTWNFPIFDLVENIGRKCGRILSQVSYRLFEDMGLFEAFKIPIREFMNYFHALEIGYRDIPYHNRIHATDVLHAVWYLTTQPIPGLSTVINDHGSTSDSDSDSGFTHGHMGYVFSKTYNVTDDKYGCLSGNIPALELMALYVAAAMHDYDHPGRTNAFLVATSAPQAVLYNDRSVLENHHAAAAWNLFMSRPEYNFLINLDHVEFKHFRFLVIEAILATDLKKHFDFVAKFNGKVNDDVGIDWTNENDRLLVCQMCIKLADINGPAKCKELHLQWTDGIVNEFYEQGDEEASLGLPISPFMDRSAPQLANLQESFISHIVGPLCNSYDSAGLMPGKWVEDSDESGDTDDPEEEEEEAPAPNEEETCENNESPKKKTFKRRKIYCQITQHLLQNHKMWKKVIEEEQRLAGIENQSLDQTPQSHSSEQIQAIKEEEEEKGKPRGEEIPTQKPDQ
Chain of Delta-type opioid receptor (P41143 whole entry): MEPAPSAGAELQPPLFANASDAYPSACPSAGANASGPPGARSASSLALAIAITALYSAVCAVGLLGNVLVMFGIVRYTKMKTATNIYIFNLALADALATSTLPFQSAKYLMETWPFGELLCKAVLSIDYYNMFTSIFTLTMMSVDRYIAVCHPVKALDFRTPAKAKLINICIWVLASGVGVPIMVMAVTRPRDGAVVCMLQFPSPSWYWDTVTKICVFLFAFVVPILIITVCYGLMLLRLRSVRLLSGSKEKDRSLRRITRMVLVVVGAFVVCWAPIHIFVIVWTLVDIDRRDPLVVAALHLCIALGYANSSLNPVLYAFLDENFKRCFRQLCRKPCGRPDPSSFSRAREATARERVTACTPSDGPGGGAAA
Chain of D(1A) dopamine receptor (P21728 whole entry): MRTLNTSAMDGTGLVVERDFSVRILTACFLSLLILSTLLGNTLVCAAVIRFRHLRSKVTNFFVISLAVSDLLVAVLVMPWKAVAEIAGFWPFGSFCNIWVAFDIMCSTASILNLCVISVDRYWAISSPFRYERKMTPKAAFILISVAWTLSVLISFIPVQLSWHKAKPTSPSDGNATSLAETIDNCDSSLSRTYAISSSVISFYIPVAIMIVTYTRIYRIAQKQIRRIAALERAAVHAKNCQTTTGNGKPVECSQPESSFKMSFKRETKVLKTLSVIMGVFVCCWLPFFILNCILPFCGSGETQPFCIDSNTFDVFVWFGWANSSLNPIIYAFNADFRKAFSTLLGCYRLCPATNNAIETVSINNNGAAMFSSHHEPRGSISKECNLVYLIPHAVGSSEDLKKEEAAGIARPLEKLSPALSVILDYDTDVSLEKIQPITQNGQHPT
Chain of Muscarinic acetylcholine receptor M3 (P20309 whole entry): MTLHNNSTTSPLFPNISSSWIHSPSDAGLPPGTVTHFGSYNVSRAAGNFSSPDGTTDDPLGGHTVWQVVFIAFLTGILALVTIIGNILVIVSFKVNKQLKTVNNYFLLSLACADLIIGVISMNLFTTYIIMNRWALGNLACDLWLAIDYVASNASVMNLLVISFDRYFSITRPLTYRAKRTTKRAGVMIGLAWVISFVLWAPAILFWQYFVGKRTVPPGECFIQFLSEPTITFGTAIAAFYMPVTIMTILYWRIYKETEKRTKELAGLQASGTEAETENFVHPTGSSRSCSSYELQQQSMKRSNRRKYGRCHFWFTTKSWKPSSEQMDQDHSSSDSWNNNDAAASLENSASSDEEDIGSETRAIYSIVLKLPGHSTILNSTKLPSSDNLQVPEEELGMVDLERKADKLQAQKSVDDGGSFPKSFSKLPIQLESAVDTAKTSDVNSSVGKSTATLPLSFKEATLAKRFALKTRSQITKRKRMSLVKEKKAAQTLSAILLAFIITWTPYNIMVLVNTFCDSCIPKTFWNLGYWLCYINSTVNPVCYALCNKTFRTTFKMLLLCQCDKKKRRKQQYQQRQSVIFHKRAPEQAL
Chain of Sodium-dependent serotonin transporter (P31645 whole entry): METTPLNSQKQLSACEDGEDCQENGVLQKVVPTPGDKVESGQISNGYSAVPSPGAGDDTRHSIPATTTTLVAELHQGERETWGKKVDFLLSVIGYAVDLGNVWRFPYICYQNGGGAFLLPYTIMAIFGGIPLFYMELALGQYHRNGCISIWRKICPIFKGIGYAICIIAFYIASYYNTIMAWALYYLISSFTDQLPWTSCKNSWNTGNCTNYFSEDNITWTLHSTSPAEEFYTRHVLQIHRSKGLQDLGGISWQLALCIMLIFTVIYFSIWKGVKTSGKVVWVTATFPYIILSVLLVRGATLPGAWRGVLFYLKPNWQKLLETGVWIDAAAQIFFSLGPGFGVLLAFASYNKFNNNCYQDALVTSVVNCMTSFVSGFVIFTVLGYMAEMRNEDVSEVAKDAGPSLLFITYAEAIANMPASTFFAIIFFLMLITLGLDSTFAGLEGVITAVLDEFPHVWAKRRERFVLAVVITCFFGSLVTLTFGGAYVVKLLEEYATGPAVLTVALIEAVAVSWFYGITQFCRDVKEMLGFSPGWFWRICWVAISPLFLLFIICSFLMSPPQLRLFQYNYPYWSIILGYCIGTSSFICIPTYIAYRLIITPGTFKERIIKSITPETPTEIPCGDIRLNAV
Chain of Histamine H2 receptor (P25021 whole entry): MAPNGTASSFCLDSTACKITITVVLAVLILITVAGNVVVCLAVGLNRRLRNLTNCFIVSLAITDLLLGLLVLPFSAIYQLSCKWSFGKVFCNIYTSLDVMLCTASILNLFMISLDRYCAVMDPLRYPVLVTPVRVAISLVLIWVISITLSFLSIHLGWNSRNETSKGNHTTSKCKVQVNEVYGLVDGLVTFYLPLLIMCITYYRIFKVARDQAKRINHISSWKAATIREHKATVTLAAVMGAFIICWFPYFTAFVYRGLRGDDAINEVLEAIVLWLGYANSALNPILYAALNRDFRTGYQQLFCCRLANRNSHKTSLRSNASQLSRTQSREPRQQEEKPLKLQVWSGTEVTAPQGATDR
Chain of Mu-type opioid receptor (P35372 whole entry): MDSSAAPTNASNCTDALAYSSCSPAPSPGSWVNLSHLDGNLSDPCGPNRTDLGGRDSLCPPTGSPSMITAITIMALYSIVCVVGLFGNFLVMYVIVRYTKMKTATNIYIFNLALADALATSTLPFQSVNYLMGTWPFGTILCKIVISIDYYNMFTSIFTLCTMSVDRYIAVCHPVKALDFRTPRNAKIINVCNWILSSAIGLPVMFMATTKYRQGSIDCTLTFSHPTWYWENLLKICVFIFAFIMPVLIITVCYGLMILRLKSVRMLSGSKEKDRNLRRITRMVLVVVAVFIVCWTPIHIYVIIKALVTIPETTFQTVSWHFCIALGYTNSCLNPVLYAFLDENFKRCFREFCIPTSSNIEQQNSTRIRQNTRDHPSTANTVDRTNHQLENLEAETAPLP

| SMILES | AC50 [1] [µM] | AC50 [2] [µM] | AC50 [3] [µM] | AC50 [4] [µM] | AC50 [5] [µM] | AC50 (D(1A) dopamine receptor) [µM] | AC50 [6] [µM] | AC50 [7] [µM] | AC50 (Histamine H1 receptor) [µM] | AC50 (Histamine H2 receptor) [µM] | AC50 [8] [µM] | AC50 [9] [µM] | AC50 [10] [µM] | AC50 (Mu-type opioid receptor) [µM] | AC50 [11] [µM] | AC50 [12] [µM] | AC50 [13] [µM] |
| --- | --- | --- | --- | --- | --- | --- | --- | --- | --- | --- | --- | --- | --- | --- | --- | --- | --- |
| COC(=O)[C@H]1[C@H]2C[C@@H]3c4[nH]c5cc(OC)ccc5c4CCN3C[C@H]2C[C@@H](OC(=O)/C=C/c2cc(OC)c(OC)c(OC)c2)[C@@H]1OC [RESCINNAMINE] | > 10 | > 10 | > 10 | > 30 | > 10 | > 30 | > 10 | > 10 | > 10 | > 30 | > 10 | > 10 | > 30 | > 30 | > 30 | > 30 | – |
| O=C(O)CCCCCCCC(=O)O [AZELAIC ACID] | > 10 | > 10 | > 10 | > 30 | > 10 | > 30 | > 10 | > 10 | > 10 | > 30 | > 10 | > 10 | > 30 | > 30 | > 10 | > 30 | – |
| Cn1c(=O)c2c(ncn2CC2OCCO2)n(C)c1=O [DOXOFYLLINE] | > 30 | > 30 | > 30 | – | > 30 | > 30 | > 30 | > 30 | – | > 30 | > 30 | > 30 | > 30 | > 30 | – | > 30 | > 30 |
| CCCC(C)C1(CC)C(=O)NC(=O)NC1=O (stereo not given) [PENTOBARBITAL] | > 10 | > 10 | > 10 | > 30 | > 10 | > 30 | – | > 10 | > 30 | > 30 | > 10 | > 10 | 19 | > 30 | > 10 | > 30 | – |
| CCOC(=O)OC(C)OC1=C(C(=O)Nc2ccccn2)N(C)S(=O)(=O)c2ccccc21 (stereo not given) [AMPIROXICAM] | > 30 | > 30 | > 30 | – | > 30 | > 30 | > 30 | > 30 | – | > 30 | > 30 | > 30 | > 30 | > 30 | – | > 30 | > 30 |
| CC(=O)O[C@H]1CC[C@@]2(C)C(=CC[C@@H]3[C@@H]2CC[C@]2(C)C(c4cccnc4)=CC[C@@H]32)C1 [ABIRATERONE ACETATE] | > 30 | > 30 | > 30 | > 30 | > 30 | > 30 | > 30 | > 30 | > 30 | > 30 | > 30 | – | > 30 | > 30 | > 30 | > 30 | – |
| Nc1nc(N)nc(-c2cc(Cl)ccc2Cl)n1 [IRSOGLADINE] | > 30 | > 30 | > 30 | – | > 30 | > 30 | – | > 30 | – | > 30 | > 30 | > 30 | – | > 30 | – | > 30 | > 30 |
| CC(=O)O[C@H]1C[C@@H]2CC[C@@H]3[C@H](CC[C@@]4(C)[C@H]3C[C@H]([N+]3(C)CCCCC3)[C@@H]4OC(C)=O)[C@@]2(C)C[C@@H]1N1CCCCC1 [VECURONIUM] | > 30 | > 30 | > 30 | – | > 30 | > 30 | > 30 | > 30 | – | > 30 | > 30 | > 30 | > 30 | > 30 | – | > 30 | > 30 |
| O=C(NCCN1CCOCC1)c1ccc(Cl)cc1 [MOCLOBEMIDE] | > 10 | > 10 | > 10 | – | > 10 | > 10 | > 10 | > 10 | – | > 10 | > 10 | > 10 | > 30 | > 30 | – | > 30 | – |
| CCCN(CCC)C(=O)C(CCC(=O)O)NC(=O)c1ccccc1 (stereo not given) [PROGLUMIDE] | > 10 | > 30 | > 10 | – | > 30 | > 30 | > 10 | > 30 | – | > 30 | > 10 | > 10 | > 30 | > 30 | – | > 30 | – |
| C[C@]12CC[C@H]3[C@@H](CCC4=CC(=O)CC[C@@]43C)[C@@H]1CC[C@@H]2O [TESTOSTERONE] | > 10 | > 10 | > 10 | – | > 10 | > 30 | > 10 | > 10 | – | > 30 | > 10 | > 10 | > 30 | > 30 | – | > 30 | – |
| Cc1cccc(C(C)c2cnc[nH]2)c1C (stereo not given) [MEDETOMIDINE] | – | > 30 | > 10 | > 30 | > 30 | > 30 | > 10 | > 30 | > 30 | > 30 | > 30 | > 30 | > 30 | > 30 | – | > 30 | > 30 |
